Source: patent US20260130395A1, “Water Dispersible Botanical Compositions” (Aquila Black Limited, priority 2021, published 2026)

Assay: Stability of cannabinoid compounds and Vitamin E components in Beverage 2 (AB Red) by LCMSMS
Format: physicochemical

CCCCCc1cc(O)c(C/C=C(\C)CCC=C(C)C)c(O)c1 [CBG, cannabigerol]
Stability of Plant-Derived Cannabinoid Compounds in AB Red (stored at 8° C., 0 days): 4.75 µg/mL
Stability of Plant-Derived Cannabinoid Compounds in AB Red (stored at 8° C., 1 days): 4.62 µg/mL
Stability of Plant-Derived Cannabinoid Compounds in AB Red (stored at 8° C., 2 days): 4.79 µg/mL
Stability of Plant-Derived Cannabinoid Compounds in AB Red (stored at 8° C., 3 days): 4.70 µg/mL
Stability of Plant-Derived Cannabinoid Compounds in AB Red (stored at 8° C., 5 days): 4.75 µg/mL
Stability of Plant-Derived Cannabinoid Compounds in AB Red (stored at 8° C., 8 days): 4.76 µg/mL
Stability of Plant-Derived Cannabinoid Compounds in AB Red (stored at 8° C., 9 days): 4.72 µg/mL
Stability of Plant-Derived Cannabinoid Compounds in AB Red (stored at 8° C., 10 days): 4.68 µg/mL
Stability of Plant-Derived Cannabinoid Compounds in AB Red (stored at 8° C., 11 days): 4.77 µg/mL
Stability of Plant-Derived Cannabinoid Compounds in AB Red (stored at 8° C., 12 days): 4.64 µg/mL
Stability of Plant-Derived Cannabinoid Compounds in AB Red (stored at 8° C., 15 days): 4.68 µg/mL
Stability of Plant-Derived Cannabinoid Compounds in AB Red (stored at 8° C., 16 days): 4.65 µg/mL
Stability of Plant-Derived Cannabinoid Compounds in AB Red (stored at 8° C., 17 days): 4.77 µg/mL
Stability of Plant-Derived Cannabinoid Compounds in AB Red (stored at 8° C., 18 days): 4.67 µg/mL
Stability of Plant-Derived Cannabinoid Compounds in AB Red (stored at 8° C., 19 days): 4.71 µg/mL
Stability of Plant-Derived Cannabinoid Compounds in AB Red (stored at 8° C., 22 days): 4.70 µg/mL
Stability of Plant-Derived Cannabinoid Compounds in AB Red (stored at 8° C., 23 days): 4.66 µg/mL
Stability of Plant-Derived Cannabinoid Compounds in AB Red (stored at 8° C., 24 days): 4.65 µg/mL
Stability of Plant-Derived Cannabinoid Compounds in AB Red (stored at 8° C., 25 days): 4.73 µg/mL
Stability of Plant-Derived Cannabinoid Compounds in AB Red (stored at 8° C., 26 days): 4.68 µg/mL
Stability of Plant-Derived Cannabinoid Compounds in AB Red (stored at 8° C., 29 days): 4.80 µg/mL
Stability of Plant-Derived Cannabinoid Compounds in AB Red (stored at 8° C., 30 days): 4.72 µg/mL
Stability of Plant-Derived Cannabinoid Compounds in AB Red (stored at 8° C., 60 days): 4.70 µg/mL
Stability of Plant-Derived Cannabinoid Compounds in AB Red (stored at 8° C., 90 days): 4.73 µg/mL
Stability of Plant-Derived Cannabinoid Compounds in AB Red (stored at 8° C., 120 days): 4.68 µg/mL
Stability of Plant-Derived Cannabinoid Compounds in AB Red (stored at 8° C., 150 days): 4.67 µg/mL
Stability of Plant-Derived Cannabinoid Compounds in AB Red (stored at 8° C., 180 days): 4.65 µg/mL
Stability of Plant-Derived Cannabinoid Compounds in AB Red (stored at 8° C., 210 days): 4.60 µg/mL
Stability of Plant-Derived Cannabinoid Compounds in AB Red (stored at 8° C., 240 days): 4.68 µg/mL
Stability of Plant-Derived Cannabinoid Compounds in AB Red (stored at 8° C., 270 days): 4.66 µg/mL
Stability of Plant-Derived Cannabinoid Compounds in AB Red (stored at 8° C., 300 days): 4.70 µg/mL
Stability of Plant-Derived Cannabinoid Compounds in AB Red (stored at 8° C., 330 days): 4.60 µg/mL
Stability of Plant-Derived Cannabinoid Compounds in AB Red (stored at 8° C., 360 days): 4.63 µg/mL
Stability of Plant-Derived Cannabinoid Compounds in AB Red (stored at 8° C., 390 days): 4.55 µg/mL
Stability of Plant-Derived Cannabinoid Compounds in AB Red (stored at 8° C., 420 days): 4.58 µg/mL
Stability of Plant-Derived Cannabinoid Compounds in AB Red (stored at 8° C., 450 days): 4.54 µg/mL
Stability of Plant-Derived Cannabinoid Compounds in AB Red (stored at 8° C., 480 days): 4.51 µg/mL
Stability of Plant-Derived Cannabinoid Compounds in AB Red (stored at 8° C., 510 days): 4.40 µg/mL
Stability of Plant-Derived Cannabinoid Compounds in AB Red (stored at 8° C., 540 days): 4.42 µg/mL
Stability of Plant-Derived Cannabinoid Compounds in AB Red (stored at 8° C., 570 days): 4.37 µg/mL
Stability of Plant-Derived Cannabinoid Compounds in AB Red (stored at 21-25° C., 0 days): 4.75 µg/mL
Stability of Plant-Derived Cannabinoid Compounds in AB Red (stored at 21-25° C., 1 days): 4.57 µg/mL
Stability of Plant-Derived Cannabinoid Compounds in AB Red (stored at 21-25° C., 2 days): 4.61 µg/mL
Stability of Plant-Derived Cannabinoid Compounds in AB Red (stored at 21-25° C., 3 days): 4.71 µg/mL
Stability of Plant-Derived Cannabinoid Compounds in AB Red (stored at 21-25° C., 5 days): 4.66 µg/mL
Stability of Plant-Derived Cannabinoid Compounds in AB Red (stored at 21-25° C., 8 days): 4.66 µg/mL
Stability of Plant-Derived Cannabinoid Compounds in AB Red (stored at 21-25° C., 9 days): 4.74 µg/mL
Stability of Plant-Derived Cannabinoid Compounds in AB Red (stored at 21-25° C., 10 days): 4.59 µg/mL
Stability of Plant-Derived Cannabinoid Compounds in AB Red (stored at 21-25° C., 11 days): 4.72 µg/mL
Stability of Plant-Derived Cannabinoid Compounds in AB Red (stored at 21-25° C., 12 days): 4.62 µg/mL
Stability of Plant-Derived Cannabinoid Compounds in AB Red (stored at 21-25° C., 15 days): 4.80 µg/mL
Stability of Plant-Derived Cannabinoid Compounds in AB Red (stored at 21-25° C., 16 days): 4.75 µg/mL
Stability of Plant-Derived Cannabinoid Compounds in AB Red (stored at 21-25° C., 17 days): 4.63 µg/mL
Stability of Plant-Derived Cannabinoid Compounds in AB Red (stored at 21-25° C., 18 days): 4.70 µg/mL
Stability of Plant-Derived Cannabinoid Compounds in AB Red (stored at 21-25° C., 19 days): 4.66 µg/mL
Stability of Plant-Derived Cannabinoid Compounds in AB Red (stored at 21-25° C., 22 days): 4.71 µg/mL
Stability of Plant-Derived Cannabinoid Compounds in AB Red (stored at 21-25° C., 23 days): 4.67 µg/mL
Stability of Plant-Derived Cannabinoid Compounds in AB Red (stored at 21-25° C., 24 days): 4.78 µg/mL
Stability of Plant-Derived Cannabinoid Compounds in AB Red (stored at 21-25° C., 25 days): 4.56 µg/mL
Stability of Plant-Derived Cannabinoid Compounds in AB Red (stored at 21-25° C., 26 days): 4.77 µg/mL
Stability of Plant-Derived Cannabinoid Compounds in AB Red (stored at 21-25° C., 29 days): 4.78 µg/mL
Stability of Plant-Derived Cannabinoid Compounds in AB Red (stored at 21-25° C., 30 days): 4.73 µg/mL
Stability of Plant-Derived Cannabinoid Compounds in AB Red (stored at 21-25° C., 60 days): 4.61 µg/mL
Stability of Plant-Derived Cannabinoid Compounds in AB Red (stored at 21-25° C., 90 days): 4.55 µg/mL
Stability of Plant-Derived Cannabinoid Compounds in AB Red (stored at 21-25° C., 120 days): 4.61 µg/mL
Stability of Plant-Derived Cannabinoid Compounds in AB Red (stored at 21-25° C., 150 days): 4.65 µg/mL
Stability of Plant-Derived Cannabinoid Compounds in AB Red (stored at 21-25° C., 180 days): 4.53 µg/mL
Stability of Plant-Derived Cannabinoid Compounds in AB Red (stored at 21-25° C., 210 days): 4.63 µg/mL
Stability of Plant-Derived Cannabinoid Compounds in AB Red (stored at 21-25° C., 240 days): 4.56 µg/mL
Stability of Plant-Derived Cannabinoid Compounds in AB Red (stored at 21-25° C., 270 days): 4.68 µg/mL
Stability of Plant-Derived Cannabinoid Compounds in AB Red (stored at 21-25° C., 300 days): 4.47 µg/mL
Stability of Plant-Derived Cannabinoid Compounds in AB Red (stored at 21-25° C., 330 days): 4.57 µg/mL
Stability of Plant-Derived Cannabinoid Compounds in AB Red (stored at 21-25° C., 360 days): 4.47 µg/mL
Stability of Plant-Derived Cannabinoid Compounds in AB Red (stored at 21-25° C., 390 days): 4.57 µg/mL
Stability of Plant-Derived Cannabinoid Compounds in AB Red (stored at 21-25° C., 420 days): 4.51 µg/mL
Stability of Plant-Derived Cannabinoid Compounds in AB Red (stored at 21-25° C., 450 days): 4.63 µg/mL
Stability of Plant-Derived Cannabinoid Compounds in AB Red (stored at 21-25° C., 480 days): 4.44 µg/mL
Stability of Plant-Derived Cannabinoid Compounds in AB Red (stored at 21-25° C., 510 days): 4.37 µg/mL
Stability of Plant-Derived Cannabinoid Compounds in AB Red (stored at 21-25° C., 540 days): 4.49 µg/mL
Stability of Plant-Derived Cannabinoid Compounds in AB Red (stored at 21-25° C., 570 days): 4.36 µg/mL
